Each structure is given as a SMILES string. Several values for one entry are separate records, joined by “and”; a condition that tells them apart may be missing. Equal values may be shown once.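 96-well plates; 48 h exposure; 5 concentrations. Endpoints by linear interpolation between flanking doses. Not reached: highest tested concentration assigned. Here, GI50 denotes the concentration required for 50% inhibition of growth. The concentration for full growth arrest is given as TGI.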

Common to all, as to assay: inhibition of tumour cell growth, NCI panel, 48 h
For assay [1], the system named is A549 NSCLC.
For assay [2], the system named is SF-539 CNS.
The test system of assay [3] is HCC-2998 colon.
The test system of assay [4] is NCI-H226 lung.
Assay [5] relates to CCRF-CEM leukemia.
The subject of assay [6] is UACC-62 melanoma.
The test system of assay [7] is KM20L2 colon.
Assay [8] concerns LOX IMVI melanoma.
The subject of assay [9] is MDA-N.
The test system of assay [10] is BT-549 breast.

Turning to `COc1ccc2c([nH]c3cc(O)c(C)cc32)c1C=O`, the TGI in [1], in assay [2], in assay [3], in [4], in [5] and in assay [6] was above 25 µM each time. In addition, the TGI in [7] and in [8] was above 25 µM each time.
Regarding `COC1/C=C\C=C(/C)C(=O)Nc2cc3nc4ccc(Br)cc4oc-3c(c2=O)CC(C)CC(OC)C(O)C(C)/C=C(\C)C1OC(N)=O` (stereo not drawn), the TGI worked out at 22.7 µM in assay [1]; 11.3 µM in assay [2]; 1.27 µM in [9]; 3.2 µM in assay [3]; 22.6 µM in [10]; 17.7 µM in assay [4]. Further, the TGI amounted to 1.9 µM in assay [5], 3.65 µM in assay [7] and 0.959 µM in assay [8]. The GI50 in assay [2] is 0.00745 µM; in assay [9] it was 0.0124 µM; in [3] it was 0.00856 µM; in [10], 10.1 µM; in [5], 0.00247 µM and 0.0182 µM; in assay [6], 0.00162 µM. Besides, in assay [8], the GI50 is 0.00271 µM.
Take `CCOC(=O)/C(=C\c1ccc(OCc2ccccc2)c(OC)c1)C(=O)c1ccccc1`: the TGI in assay [1] is above 10 µM; in assay [2], 31.2 µM; in assay [3], above 100 µM; in [4], 42.5 µM; in [5] it was 58.5 µM; in [6], 48.4 µM. The TGI in assay [7] stood at 34.3 µM; in assay [8] it was 30 µM.
Regarding `S=c1nc(Oc2ccc(Cl)c(Cl)c2)[nH]c(=S)[nH]1`, the TGI was 61.4 µM in assay [1]; above 73.1 µM in assay [2]; above 100 µM in [9]; 37.9 µM in assay [3]; above 100 µM in assay [10]; above 77.6 µM in assay [4]. The TGI in assay [5] was above 87.5 µM; in [6], above 60.3 µM; in [7], above 100 µM; in assay [8], 37.8 µM.
Take `CC(=O)NC1=C(Nc2ccc(C)cc2)C(=O)c2ccccc2C1=O`: the TGI is 29.3 µM in assay [1]; 33 µM in [2]; above 75 µM in assay [3]; 42.5 µM in assay [4]; 58.4 µM in assay [5]; 23 µM in assay [6]. In addition, the results for the TGI in assay [7] and in assay [8] were above 75 µM and 21.3 µM, respectively.
With `CC(=O)[CH-]C(=O)c1ccccc1.CC(=O)[CH-]C(=O)c1ccccc1.CC(=O)[CH-]C(=O)c1ccccc1.[Tl+3]`, the GI50 in [1] is 42.1 µM; in assay [2], 36.9 µM; in [3], 37.5 µM; in assay [4] it was 35.7 µM; in assay [5], 6.81 µM; in assay [6], 32 µM. In addition, the GI50 was 45.6 µM in assay [7] and 42.7 µM in assay [8]. Also, the TGI in [1] is above 100 µM; in assay [2] it was above 100 µM; in assay [3], above 100 µM; in assay [4], above 100 µM; in assay [5], 30.9 µM; in [6], above 100 µM. In addition, the TGI in [7] and in assay [8] was above 100 µM each time.
In the case of `OCC(O)C(O)C(O)C1SC(c2ccccc2)=NN1c1ccccc1` (stereo not drawn), the TGI in [1] is above 100 µM; in assay [2] it was 98.7 µM; in assay [9], above 100 µM; in assay [3] it was above 100 µM; in assay [10] it was above 100 µM; in [4], above 100 µM. Moreover, the TGI in assay [5] was above 100 µM; in [6], 74.2 µM; in [7], above 100 µM; in assay [8] it was above 100 µM.
As to `N/N=C(\CC1OC(=O)c2ccccc21)c1ccco1` (stereo not drawn), the TGI in [1], in assay [2], in assay [3], in assay [4], in [5] and in assay [6] was above 100 µM throughout. The TGI in assay [7] and in assay [8] was above 100 µM each time.
With `CC(=O)OCC1OC(OC2CC3C(C)(C)C(OC(C)=O)CC[C@]3(C)C3CCC45CC4(CC[C@H]5C(C)CC(O)[C@@H](O)C(C)(C)O)[C@]23C)C(O)C(O)C1O` (stereo partly drawn), the GI50 was 19.9 µM in assay [1], 4.07 µM in assay [5], 4.9 µM in [6] and 3.34 µM in assay [8]. The TGI in [1] was 14.2 µM and 35 µM; in assay [2] it was 13.5 µM and 18.9 µM; in assay [3] it was 12.9 µM; in assay [4], 13.3 µM; in assay [5], 14.8 µM and 15.4 µM; in assay [6], 12.2 µM and 16.5 µM. Further, the TGI in assay [7] is 14.4 µM and 21.6 µM; in assay [8] it was 13 µM and 11.2 µM.
In the case of `Clc1ccc(-n2nnc(C3=NCCCN3)c2-c2ccccc2)cc1`, the TGI in assay [1], in assay [2], in [3], in assay [4], in assay [5] and in [6] was above 100 µM throughout. In addition, the TGI in [7] and in [8] was above 100 µM each time.
For the compound `COc1ccc(/C=C\c2cc(OC)c(OC)c(OC)c2)cc1OC(=O)C(N)CCC(=O)O` (stereo not drawn), the GI50 in [1] is 0.00398 µM and 0.0108 µM; in assay [2] it was 0.000814 µM; in [9] it was 0.000204 µM; in [5], 0.000576 µM; in [6], 0.000597 µM; in assay [7], 1.51 µM. The GI50 in assay [8] is 0.000605 µM and 0.000284 µM and < 0.0001 µM. Moreover, the TGI in [1] is 28.4 µM and > 100 µM; in assay [2] it was 0.000166 µM; in assay [10], 0.00299 µM; in assay [4], 0.0415 µM; in assay [5], above 100 µM; in [6], above 100 µM. The TGI is 9.55 µM in assay [7] and above 33.9 µM in [8].
Regarding `O=[N+]([O-])c1ccc(Sc2c3ccccc3nc3ccccc23)cc1`, the TGI in [1], in assay [2], in assay [3], in assay [4], in assay [5] and in assay [6] was above 100 µM each time. The TGI in assay [7] and in [8] was above 100 µM in each case.
Turning to `C1CNCCNCCNCCN1`, the TGI in assay [1], in [2], in [3], in assay [4], in [5] and in assay [6] was above 100 µM each time. Moreover, the TGI in [7] and in assay [8] was above 100 µM in each case.
Take `CC(=O)OCSc1ncnc2c1ncn2CN1CCOCC1`: the TGI in [1], in assay [2], in [3], in assay [4], in [5] and in assay [6] was above 100 µM in each case. Further, the TGI in assay [7] was above 100 µM; in [8], 76.6 µM.
